Results as given in US9340590B2 (priority 2011, dated 2016).
pIC50: −log10 of the molar value. Positions of bridges follow the written chain, without caps; N, C: chain ends. Non-standard residues stand in square brackets, D forms with d. Residues, ends and D or L forms follow the SMILES beside them. 1Nal = N[C@@H](Cc1cccc2ccccc12)C(=O)O

Assays:
Assay in all cases: cell-based
hNav1.7 = hNav1.7 (Homo sapiens, UniProt Q15858); format: cell-based; conditions: IonWorks Quattro, use-dependent block, hNav1.7; read-out: IWQ Use Nav1.7
hNav1.7, sequence (Q15858 whole entry, looked up): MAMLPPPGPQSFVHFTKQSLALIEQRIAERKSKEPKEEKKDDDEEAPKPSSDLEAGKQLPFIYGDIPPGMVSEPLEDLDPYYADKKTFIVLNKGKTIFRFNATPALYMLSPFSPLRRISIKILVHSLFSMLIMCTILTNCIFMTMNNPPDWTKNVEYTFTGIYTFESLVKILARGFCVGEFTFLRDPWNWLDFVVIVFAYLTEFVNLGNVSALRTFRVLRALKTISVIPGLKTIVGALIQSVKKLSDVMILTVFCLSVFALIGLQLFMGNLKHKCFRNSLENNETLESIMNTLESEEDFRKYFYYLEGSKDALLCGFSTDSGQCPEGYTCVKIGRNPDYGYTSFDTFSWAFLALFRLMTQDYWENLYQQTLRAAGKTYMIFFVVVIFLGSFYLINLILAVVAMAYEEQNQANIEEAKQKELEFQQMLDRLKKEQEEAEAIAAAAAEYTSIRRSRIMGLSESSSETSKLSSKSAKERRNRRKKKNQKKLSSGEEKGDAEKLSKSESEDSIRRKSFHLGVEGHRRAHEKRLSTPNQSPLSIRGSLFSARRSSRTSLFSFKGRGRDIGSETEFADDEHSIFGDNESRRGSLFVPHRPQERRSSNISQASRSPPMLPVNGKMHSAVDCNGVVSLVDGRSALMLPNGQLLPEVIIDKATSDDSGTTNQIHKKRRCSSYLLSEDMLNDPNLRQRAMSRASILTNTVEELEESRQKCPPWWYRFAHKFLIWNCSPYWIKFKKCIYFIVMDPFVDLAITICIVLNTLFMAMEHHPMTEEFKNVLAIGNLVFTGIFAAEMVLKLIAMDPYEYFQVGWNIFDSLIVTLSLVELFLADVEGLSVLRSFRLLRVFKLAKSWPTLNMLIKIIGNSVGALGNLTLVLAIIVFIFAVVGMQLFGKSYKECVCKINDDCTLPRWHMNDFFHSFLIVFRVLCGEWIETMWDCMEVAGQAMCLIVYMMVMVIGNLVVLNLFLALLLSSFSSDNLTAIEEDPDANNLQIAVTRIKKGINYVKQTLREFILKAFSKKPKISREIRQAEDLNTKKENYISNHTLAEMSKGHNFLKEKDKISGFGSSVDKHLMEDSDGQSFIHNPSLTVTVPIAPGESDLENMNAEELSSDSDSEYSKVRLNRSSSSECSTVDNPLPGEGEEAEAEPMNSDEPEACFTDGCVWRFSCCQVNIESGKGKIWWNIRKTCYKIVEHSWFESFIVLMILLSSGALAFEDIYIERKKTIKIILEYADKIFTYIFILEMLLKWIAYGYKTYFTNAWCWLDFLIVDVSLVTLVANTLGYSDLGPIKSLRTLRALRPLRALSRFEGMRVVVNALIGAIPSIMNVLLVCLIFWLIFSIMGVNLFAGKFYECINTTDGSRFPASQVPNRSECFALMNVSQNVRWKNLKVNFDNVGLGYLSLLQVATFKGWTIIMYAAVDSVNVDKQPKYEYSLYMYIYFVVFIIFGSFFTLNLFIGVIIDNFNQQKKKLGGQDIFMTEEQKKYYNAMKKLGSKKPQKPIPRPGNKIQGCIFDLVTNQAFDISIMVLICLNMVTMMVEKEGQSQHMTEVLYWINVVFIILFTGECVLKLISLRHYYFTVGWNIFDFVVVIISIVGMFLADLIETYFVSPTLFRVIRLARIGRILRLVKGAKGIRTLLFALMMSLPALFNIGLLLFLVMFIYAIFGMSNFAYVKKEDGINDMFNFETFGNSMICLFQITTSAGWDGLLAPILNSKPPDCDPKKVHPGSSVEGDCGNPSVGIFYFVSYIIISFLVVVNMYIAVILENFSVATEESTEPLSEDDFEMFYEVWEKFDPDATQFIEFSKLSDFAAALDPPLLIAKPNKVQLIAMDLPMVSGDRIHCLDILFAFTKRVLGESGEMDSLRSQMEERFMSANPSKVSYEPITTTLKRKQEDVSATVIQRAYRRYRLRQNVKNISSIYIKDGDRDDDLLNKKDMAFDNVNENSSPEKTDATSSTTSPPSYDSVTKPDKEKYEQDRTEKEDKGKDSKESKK

hNav1.5 = hNav1.5 (Homo sapiens, UniProt Q14524); conditions: IonWorks Quattro, use-dependent block, hNav1.5; read-out: IWQ Use Nav1.5
hNav1.5, sequence (Q14524 whole entry, looked up): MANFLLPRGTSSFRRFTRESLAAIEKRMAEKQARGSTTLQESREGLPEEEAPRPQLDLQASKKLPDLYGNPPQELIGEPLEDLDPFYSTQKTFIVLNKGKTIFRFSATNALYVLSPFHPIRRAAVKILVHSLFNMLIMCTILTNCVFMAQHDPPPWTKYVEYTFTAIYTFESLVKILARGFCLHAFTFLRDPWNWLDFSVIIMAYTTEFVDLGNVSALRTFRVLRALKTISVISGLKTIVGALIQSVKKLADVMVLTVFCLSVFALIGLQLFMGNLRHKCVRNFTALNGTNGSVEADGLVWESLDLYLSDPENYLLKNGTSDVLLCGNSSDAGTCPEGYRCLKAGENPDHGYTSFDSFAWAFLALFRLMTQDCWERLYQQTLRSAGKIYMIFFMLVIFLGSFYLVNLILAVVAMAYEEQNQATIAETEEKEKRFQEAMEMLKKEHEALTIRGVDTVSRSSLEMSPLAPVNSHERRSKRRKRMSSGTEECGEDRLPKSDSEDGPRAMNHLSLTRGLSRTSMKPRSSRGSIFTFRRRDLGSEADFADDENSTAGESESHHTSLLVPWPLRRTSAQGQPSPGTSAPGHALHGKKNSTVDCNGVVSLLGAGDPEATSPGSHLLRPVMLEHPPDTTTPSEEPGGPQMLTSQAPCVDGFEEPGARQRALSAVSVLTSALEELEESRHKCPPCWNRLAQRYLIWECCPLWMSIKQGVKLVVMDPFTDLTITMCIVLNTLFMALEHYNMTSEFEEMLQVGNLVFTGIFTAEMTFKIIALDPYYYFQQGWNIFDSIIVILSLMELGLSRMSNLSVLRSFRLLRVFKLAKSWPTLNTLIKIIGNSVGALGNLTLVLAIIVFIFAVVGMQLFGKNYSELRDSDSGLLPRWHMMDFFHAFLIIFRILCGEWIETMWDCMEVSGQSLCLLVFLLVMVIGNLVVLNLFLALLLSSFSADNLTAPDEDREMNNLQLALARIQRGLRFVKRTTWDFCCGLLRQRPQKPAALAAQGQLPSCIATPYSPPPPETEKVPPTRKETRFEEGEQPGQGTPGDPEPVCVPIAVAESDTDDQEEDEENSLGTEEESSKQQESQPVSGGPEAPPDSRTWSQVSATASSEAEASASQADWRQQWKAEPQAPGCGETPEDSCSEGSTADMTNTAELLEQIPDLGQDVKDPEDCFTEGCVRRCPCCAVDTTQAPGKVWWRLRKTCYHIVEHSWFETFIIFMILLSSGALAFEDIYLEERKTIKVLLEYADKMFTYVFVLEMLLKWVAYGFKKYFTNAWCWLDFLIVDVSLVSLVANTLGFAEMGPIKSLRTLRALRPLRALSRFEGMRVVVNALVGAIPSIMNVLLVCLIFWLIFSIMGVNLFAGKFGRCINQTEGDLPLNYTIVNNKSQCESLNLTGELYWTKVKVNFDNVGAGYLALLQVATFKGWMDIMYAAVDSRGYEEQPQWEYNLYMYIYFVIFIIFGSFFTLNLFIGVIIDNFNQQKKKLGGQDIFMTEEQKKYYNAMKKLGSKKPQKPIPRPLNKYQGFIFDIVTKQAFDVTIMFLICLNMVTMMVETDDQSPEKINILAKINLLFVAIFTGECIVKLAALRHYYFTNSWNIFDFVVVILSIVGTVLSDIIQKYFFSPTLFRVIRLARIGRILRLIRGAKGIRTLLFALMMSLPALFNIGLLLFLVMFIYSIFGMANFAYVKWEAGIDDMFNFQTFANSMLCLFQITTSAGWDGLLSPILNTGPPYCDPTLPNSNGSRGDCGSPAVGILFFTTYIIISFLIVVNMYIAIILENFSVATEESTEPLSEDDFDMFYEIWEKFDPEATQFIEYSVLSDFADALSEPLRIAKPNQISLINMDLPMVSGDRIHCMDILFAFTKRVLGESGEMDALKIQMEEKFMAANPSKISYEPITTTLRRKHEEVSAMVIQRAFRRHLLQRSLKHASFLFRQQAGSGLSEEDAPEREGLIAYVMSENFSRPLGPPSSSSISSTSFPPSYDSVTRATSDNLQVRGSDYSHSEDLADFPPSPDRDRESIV

hNav1.3 = hNav1.3 (Homo sapiens, UniProt Q9NY46); conditions: IonWorks Quattro, use-dependent block, hNav1.3; read-out: IWQ Use Nav1.3

SMILES	pIC50 (hNav1.7)	pIC50 (hNav1.5)	pIC50 (hNav1.3)
CC[C@H](C)[C@@H]1NC(=O)[C@@H]2CSSC[C@@H]3NC(=O)[C@H](C(C)C)NC(=O)[C@H](CC(C)C)NC(=O)[C@H](CC(N)=O)NC(=O)[C@@H]4CCCN4C(=O)[C@H](CCCNC(=N)N)NC(=O)[C@H](CSSC[C@H](NC(=O)[C@@H](N)CC(=O)O)C(=O)N[C@@H](CC(C)C)C(=O)NCC(=O)N[C@@H](C)C(=O)N[C@@H](CCSC)C(=O)N[C@@H](CCCNC(=N)N)C(=O)N[C@@H](CCCCN)C(=O)N2)NC(=O)[C@H](CSSC[C@@H](C(=O)N[C@@H](CCCCN)C(=O)N[C@@H](Cc2ccc(O)cc2)C(=O)N[C@H](C(=O)N[C@@H](Cc2ccccc2)C(N)=O)C(C)C)NC(=O)[C@H](Cc2c[nH]c4ccccc24)NC(=O)[C@H](CCCCN)NC(=O)[C@H](Cc2c[nH]cn2)NC(=O)[C@H]([C@@H](C)O)NC(=O)[C@H](CCC(=O)O)NC(=O)[C@H](CO)NC3=O)NC(=O)[C@H](CCCCN)NC(=O)[C@H](CC(=O)O)NC(=O)[C@H](CC(N)=O)NC(=O)[C@H](CC(=O)O)NC(=O)[C@@H]2CCCN2C1=O [compound 438]	5.26	4.74	5.23
CC[C@H](C)[C@@H]1NC(=O)[C@@H]2CSSC[C@@H]3NC(=O)[C@H](C(C)C)NC(=O)[C@H](CC(C)C)NC(=O)[C@H](CC(N)=O)NC(=O)[C@@H]4CCCN4C(=O)[C@H](CCCNC(=N)N)NC(=O)[C@H](CSSC[C@H](NC(=O)[C@@H](N)CC(=O)O)C(=O)N[C@@H](CC(C)C)C(=O)NCC(=O)N[C@@H](C)C(=O)N[C@@H](CCSC)C(=O)N[C@@H](CCCNC(=N)N)C(=O)N[C@@H](CCCCN)C(=O)N2)NC(=O)[C@H](CSSC[C@@H](C(=O)N[C@@H](CCCCN)C(=O)N[C@@H](Cc2ccc(O)cc2)C(=O)N[C@H](C(=O)N[C@@H](Cc2ccccc2)C(N)=O)C(C)C)NC(=O)[C@H](Cc2c[nH]c4ccccc24)NC(=O)[C@H](CCCCN)NC(=O)[C@H](Cc2c[nH]cn2)NC(=O)[C@H]([C@@H](C)O)NC(=O)[C@H](CCCNC(=N)N)NC(=O)[C@H](CO)NC3=O)NC(=O)[C@H](CCC(=O)O)NC(=O)[C@H](CC(=O)O)NC(=O)[C@H](CC(N)=O)NC(=O)[C@H](CC(=O)O)NC(=O)[C@@H]2CCCN2C1=O [compound 439] (H-DCLGAMRKCIPDNDECCRPNLVCSRTHKWCKYVF-NH2; disulfide 2-17, 9-23, 16-30)	5.62	4.97	5.32
CC[C@H](C)[C@@H]1NC(=O)[C@@H]2CSSC[C@@H]3NC(=O)[C@H](C(C)C)NC(=O)[C@H](CC(C)C)NC(=O)[C@H](CC(N)=O)NC(=O)[C@@H]4CCCN4C(=O)[C@H](CCCNC(=N)N)NC(=O)[C@H](CSSC[C@H](NC(=O)[C@@H](N)CC(=O)O)C(=O)N[C@@H](CC(C)C)C(=O)NCC(=O)N[C@@H](Cc4ccccc4)C(=O)N[C@@H](CCSC)C(=O)N[C@@H](CCCNC(=N)N)C(=O)N[C@@H](CCCCN)C(=O)N2)NC(=O)[C@H](CSSC[C@@H](C(=O)N[C@@H](CCCCN)C(=O)N[C@@H](Cc2ccc(O)cc2)C(=O)N[C@@H](Cc2cccc4ccccc24)C(=O)N[C@@H](Cc2ccccc2)C(N)=O)NC(=O)[C@H](Cc2c[nH]c4ccccc24)NC(=O)[C@H](CCCNC(=N)N)NC(=O)[C@H](Cc2c[nH]cn2)NC(=O)[C@H]([C@@H](C)O)NC(=O)[C@H](CCCNC(=N)N)NC(=O)[C@H](CO)NC3=O)NC(=O)[C@H](CCCCN)NC(=O)[C@H](CC(=O)O)NC(=O)[C@H](CC(N)=O)NC(=O)[C@H](CC(=O)O)NC(=O)[C@@H]2CCCN2C1=O [compound 442] (H-DCLGFMRKCIPDNDKCCRPNLVCSRTHRWCKY[1Nal]F-NH2; disulfide 2-17, 9-23, 16-30)	7.52	< 5.30	7.40
CC[C@H](C)[C@@H]1NC(=O)[C@@H]2CSSC[C@@H]3NC(=O)[C@H](C(C)C)NC(=O)[C@H](CC(C)C)NC(=O)[C@H](CC(N)=O)NC(=O)[C@@H]4CCCN4C(=O)[C@H](CCCNC(=N)N)NC(=O)[C@H](CSSC[C@H](NC(=O)[C@@H](N)CC(=O)O)C(=O)N[C@@H](CC(C)C)C(=O)NCC(=O)N[C@@H](Cc4ccccc4)C(=O)N[C@@H](CCSC)C(=O)N[C@@H](CCCNC(=N)N)C(=O)N[C@@H](CCCCN)C(=O)N2)NC(=O)[C@H](CSSC[C@@H](C(=O)N[C@@H](CCCCN)C(=O)N[C@@H](Cc2c[nH]c4ccccc24)C(=O)N[C@H](C(=O)N[C@@H](Cc2ccccc2)C(N)=O)C(C)C)NC(=O)[C@H](Cc2c[nH]c4ccccc24)NC(=O)[C@H](CCCNC(=N)N)NC(=O)[C@H](Cc2c[nH]cn2)NC(=O)[C@H]([C@@H](C)O)NC(=O)[C@H](CCCNC(=N)N)NC(=O)[C@H](CO)NC3=O)NC(=O)[C@H](CCCCN)NC(=O)[C@H](CC(=O)O)NC(=O)[C@H](CC(N)=O)NC(=O)[C@H](CC(=O)O)NC(=O)[C@@H]2CCCN2C1=O [compound 443] (H-DCLGFMRKCIPDNDKCCRPNLVCSRTHRWCKWVF-NH2; disulfide 2-17, 9-23, 16-30)	7.15	5.31	7.15
CC[C@H](C)[C@@H]1NC(=O)[C@@H]2CSSC[C@@H]3NC(=O)[C@H](C(C)C)NC(=O)[C@H](CC(C)C)NC(=O)[C@H](CC(N)=O)NC(=O)[C@@H]4CCCN4C(=O)[C@H](CCCNC(=N)N)NC(=O)[C@H](CSSC[C@H](NC(=O)[C@@H](N)CC(=O)O)C(=O)N[C@@H](CC(C)C)C(=O)NCC(=O)N[C@@H](Cc4ccccc4)C(=O)N[C@@H](CCSC)C(=O)N[C@@H](CCCNC(=N)N)C(=O)N[C@@H](CCCCN)C(=O)N2)NC(=O)[C@H](CSSC[C@@H](C(=O)N[C@@H](CCCCN)C(=O)N[C@@H](Cc2ccc(O)cc2)C(=O)N[C@@H](Cc2c[nH]c4ccccc24)C(=O)N[C@@H](Cc2ccccc2)C(N)=O)NC(=O)[C@H](Cc2c[nH]c4ccccc24)NC(=O)[C@H](CCCNC(=N)N)NC(=O)[C@H](Cc2c[nH]cn2)NC(=O)[C@H]([C@@H](C)O)NC(=O)[C@H](CCCNC(=N)N)NC(=O)[C@H](CO)NC3=O)NC(=O)[C@H](CCCCN)NC(=O)[C@H](CC(=O)O)NC(=O)[C@H](CC(N)=O)NC(=O)[C@H](CC(=O)O)NC(=O)[C@@H]2CCCN2C1=O [compound 444] (H-DCLGFMRKCIPDNDKCCRPNLVCSRTHRWCKYWF-NH2; disulfide 2-17, 9-23, 16-30)	7.52	< 5.30	7.40
CC[C@H](C)[C@@H]1NC(=O)[C@@H]2CSSC[C@@H]3NC(=O)[C@H](C(C)C)NC(=O)[C@H](CC(C)C)NC(=O)[C@H](CC(N)=O)NC(=O)[C@@H]4CCCN4C(=O)[C@H](CCCNC(=N)N)NC(=O)[C@H](CSSC[C@H](NC(=O)[C@@H](N)CC(=O)O)C(=O)N[C@@H](CC(C)C)C(=O)NCC(=O)N[C@@H](Cc4ccccc4)C(=O)N[C@@H](CCSC)C(=O)N[C@@H](CCCNC(=N)N)C(=O)N[C@@H](CCCCN)C(=O)N2)NC(=O)[C@H](CSSC[C@@H](C(=O)N[C@@H](CCCCN)C(=O)N[C@@H](Cc2ccc(O)cc2)C(=O)N[C@H](C(=O)N[C@@H](Cc2ccccc2)C(N)=O)C(C)C)NC(=O)[C@H](Cc2c[nH]c4ccccc24)NC(=O)[C@H](CCCNC(=N)N)NC(=O)[C@H](Cc2c[nH]cn2)NC(=O)[C@H](CC(C)C)NC(=O)[C@H](CCCNC(=N)N)NC(=O)[C@H](CO)NC3=O)NC(=O)[C@H](CCCCN)NC(=O)[C@H](CC(=O)O)NC(=O)[C@H](CC(N)=O)NC(=O)[C@H](CC(=O)O)NC(=O)[C@@H]2CCCN2C1=O [compound 445] (H-DCLGFMRKCIPDNDKCCRPNLVCSRLHRWCKYVF-NH2; disulfide 2-17, 9-23, 16-30)	7.52	< 5.30	7.22
CC[C@H](C)[C@@H]1NC(=O)[C@@H]2CSSC[C@@H]3NC(=O)[C@H](C(C)C)NC(=O)[C@H](CC(C)C)NC(=O)[C@H](CC(N)=O)NC(=O)[C@@H]4CCCN4C(=O)[C@H](CCCNC(=N)N)NC(=O)[C@H](CSSC[C@H](NC(=O)[C@@H](N)CC(=O)O)C(=O)N[C@@H](CC(C)C)C(=O)NCC(=O)N[C@@H](Cc4ccccc4)C(=O)N[C@@H](CCSC)C(=O)N[C@@H](CCCNC(=N)N)C(=O)N[C@@H](CCCCN)C(=O)N2)NC(=O)[C@H](CSSC[C@@H](C(=O)N[C@@H](CCCCN)C(=O)N[C@@H](Cc2c[nH]c4ccccc24)C(=O)N[C@H](C(=O)N[C@@H](Cc2ccccc2)C(N)=O)C(C)C)NC(=O)[C@H](Cc2c[nH]c4ccccc24)NC(=O)[C@H](CCCCN)NC(=O)[C@H](Cc2c[nH]cn2)NC(=O)[C@H](CC(C)C)NC(=O)[C@H](CCCNC(=N)N)NC(=O)[C@H](CO)NC3=O)NC(=O)[C@H](CCCCN)NC(=O)[C@H](CC(=O)O)NC(=O)[C@H](CC(N)=O)NC(=O)[C@H](CC(=O)O)NC(=O)[C@@H]2CCCN2C1=O [compound 446] (H-DCLGFMRKCIPDNDKCCRPNLVCSRLHKWCKWVF-NH2; disulfide 2-17, 9-23, 16-30)	7.40	< 5.30	7.22
CC[C@H](C)[C@@H]1NC(=O)[C@@H]2CSSC[C@@H]3NC(=O)[C@H](C(C)C)NC(=O)[C@H](CC(C)C)NC(=O)[C@H](CC(N)=O)NC(=O)[C@@H]4CCCN4C(=O)[C@H](CCCNC(=N)N)NC(=O)[C@H](CSSC[C@H](NC(=O)[C@@H](N)CC(=O)O)C(=O)N[C@@H](CC(C)C)C(=O)NCC(=O)N[C@@H](Cc4ccccc4)C(=O)N[C@@H](CCSC)C(=O)N[C@@H](CCCNC(=N)N)C(=O)N[C@@H](CCCCN)C(=O)N2)NC(=O)[C@H](CSSC[C@@H](C(=O)N[C@@H](CCCCN)C(=O)N[C@@H](Cc2ccc(O)cc2)C(=O)N[C@@H](Cc2c[nH]c4ccccc24)C(=O)N[C@@H](Cc2ccccc2)C(N)=O)NC(=O)[C@H](Cc2c[nH]c4ccccc24)NC(=O)[C@H](CCCCN)NC(=O)[C@H](Cc2c[nH]cn2)NC(=O)[C@H](CC(C)C)NC(=O)[C@H](CCCNC(=N)N)NC(=O)[C@H](CO)NC3=O)NC(=O)[C@H](CCCCN)NC(=O)[C@H](CC(=O)O)NC(=O)[C@H](CC(N)=O)NC(=O)[C@H](CC(=O)O)NC(=O)[C@@H]2CCCN2C1=O [compound 447] (H-DCLGFMRKCIPDNDKCCRPNLVCSRLHKWCKYWF-NH2; disulfide 2-17, 9-23, 16-30)	7.52	< 5.30	7.70
